Data reported in patent US20230158176A1, “NEAR-INFRARED FLUORESCENT SMALL-MOLECULE PROBE, SYNTHESIS METHOD AND APPLICATION THEREOF” (Linyi University, priority 2021, published 2023).

Tests used:
[1] = system: murine mammary carcinoma cells (4T1 cells); test: In vitro evaluation of cytotoxicity by CCK-8; assay type: cell-based; conditions: 10 μM to 60 μM, incubated 1 h
Protocol: Respective toxicity of the IR-780-F solution and the IR-780 solution with concentrations from 10 μM to 60 μM on murine mammary carcinoma cells (also referred to as 4T1 cells) is measured by cell counting kit-8 (CCK-8). Incubated 4T1 cells are collected and centrifuged to prepare cell suspensions, and a cell concentration is adjusted to 8×10^4 cells per milliliter. The 4T1 cells are transferred to 96-well plates, and 100 microliters (μL) 4T1 cells are added to each well, so that a density of the cells to be tested is about 8000 cells per well, and the number of the 96-well plates for experiment is two. The two 96-well plates inoculated with the cells to be tested are placed in an incubator at 37° C. for 12 h. One plate is incubated with the IR-780-F solutions with a concentration gradient from 10 μM to 60 μM for 1 h; the other plate is incubated with the IR-780 solutions with a concentration gradient from 10 μM to 60 μM for 1 h. After the end of incubation, CCK-8 reagent (a volume of 10 μL, a concentration of 5 mg/mL, i.e. 0.5% CCK-8 reagent) is immediately added to the each well and the two 96-well plates continue to incubate for 40 min. Finally, absorptivity and intensity of the each well are tested by an enzyme calibration, and cell viability of the control group is taken as 100%, and the cell viability of the test groups are taken as the percentage of the control group.

[2] = In vitro photothermal efficiency under 808 nm laser radiation; assay type: physicochemical; conditions: for highest temperature of the solution: 2.0 W/cm^2, solutions 0.2-1.2 mg/mL in PBS
Protocol: To evaluate in vitro thermogenesis of IR-780 solution and IR-780-F solution, 10 millimoles per litter (mM) IR-780-F solution dissolved in the dimethyl sulfoxide is used, and the IR-780-F solution is respectively diluted to the concentrations of 0.2 milligrams per milliliters (mg/mL), 0.4 mg/mL, 0.8 mg/mL, and 1.2 mg/mL with the phosphate buffered saline and these IR-780-F solutions and the phosphate buffered saline are evaluated. The IR-780 solution is prepared as above.
Temperature changes of the IR-780-F solutions and the phosphate buffered saline and temperature changes of the IR-780 solutions and the phosphate buffered saline are respectively recorded by using an infrared thermal imaging camera (a model of FLIR-E6). The phosphate buffered saline as a control group, 0.2 mg/mL of the IR-780-F solution and 0.2 mg/mL of the IR-780 solution, 0.4 mg/mL of the IR-780-F solution and 0.4 mg/mL of the IR-780 solution, 0.8 mg/mL of the IR-780-F solution and 0.8 mg/mL of the IR-780 solution, 1.2 mg/mL of the IR-780-F solution and 1.2 mg/mL of the IR-780 solution are all exposed to 808 nm laser radiation with a power density of 2.0 Watt per square centimeter (W/cm^2) to be measured and recorded the temperature changes.

[3] = system: 4T1 tumor-bearing nude mice; test: Photothermal efficiency at tumor location in vivo; parameters: species or system BALB/c Nude mice; conditions: IR-780-F+laser radiation group, intratumoral injection, laser 4 minutes
Protocol: (§1) The incubated 4T1 cells are collected by centrifugation, rinsed three times with PBS buffer solution to prepare cell suspensions, which are used a cell counter to count cell number. The cell suspensions are respectively diluted to desired concentrations with the PBS buffer solution. The pretreated 4T1 cells (about 1×10^6 per 100 μL) are injected subcutaneously into right hind legs of BALB/c Nude mice and tumor model mice are obtained after about one week.
The injection of the IR-780-F (containing 12.4% dimethyl sulfoxide) is prepared with PBS buffer solution for intratumoral injection. After 12 hours, the nude mice are anesthetized, imaged using a photothermal imager, and temperature changes are recorded. The tumor locations of the mice are irradiated with a laser for 4 minutes, and then the photothermal imaging is again performed on the corresponding tumor locations to record the corresponding temperature.

[4] = system: 4T1 tumor-bearing nude mice; test: Photothermal treatment effect in tumor-bearing mice; assay type: in vivo, BALB/c Nude mice
Protocol: as §1
After successful tumor loading, mice with an average tumor diameter of about 10×10 mm are randomly divided into four groups (5 mice in each group): (1) control group: intratumoral injection of 0.1 mL of saline; (2) laser group: intratumoral injection of 0.1 mL of saline followed by a laser radiation (a wavelength of 808 nm, 2.0 W/cm^2, 4 min); (3) IR-780-F group: intratumoral injection of 0.1 mL (corresponding to 80 micrograms abbreviated μg) of the IR-780-F solution without the laser radiation; (4) IR-780-F+laser group: intratumoral injection of 80 μg of the IR-780-F solution followed by the laser radiation (a wavelength of 808 mn, 2.0 W/cm^2, 4 min). The mice are anesthetized after administration of the medicine, and the tumor locations of the mice are placed under the laser radiation. When the laser irradiated the tumor locations of the mice, the temperature of the tumor locations under the laser radiation are simultaneously recorded when measured by the thermal infrared imager.

[5] = Molecular spectrum test (absorption and emission spectra); assay type: physicochemical; conditions: for maximum emission wavelength: λex 740 nm
Protocol: A certain mass of the IR-780-F sample is weighed and dissolved in dimethyl sulfoxide (DMSO) to obtain a solving solution, and the quantitative solving solution is added to 2-[4-(2-hydroxyethyl)-1-piperazinyl]-ethanesulfonic acid (HEPES, also referred to as C8H18N2O4S) buffer solution to form a solution with a concentration of 10.0 micromoles per liter […] (containing 10% dimethyl sulfoxide) and an absorption spectrum of the IR-780-F sample is measured. Ultraviolet absorption spectrum is obtained by Agilent Ultraviolet-Vis spectrophotometer with a scanning wavelength range from 500 nanometers (nm) to 900 nm at a sweep rate of 1002 nanometers per minute (nm/min). Furthermore, addition quantitative solving solution is respectively added to methanol, acetonitrile, phosphate buffered saline (PBS buffer solution), HEPES buffer solution, bovine serum and adult serum to form a solution with a concentration of 10.0 μM (containing 10% dimethyl sulfoxide) to test an emission spectrum of the IR-780-F sample. Hitachi F-4600 […] is used to obtain FT-IR emission spectrum, of the scanning wavelength is from 750 nm to 900nm, an excitation wavelength λex is 740 nm, an excitation slit width is 5 nm, and an emission slit width is 5 nm.

[6] = system: 4T1 tumor-bearing nude mice; test: In vivo NIR fluorescence imaging / distribution in tumor-bearing mice; parameters: species or system BALB/c Nude mice; conditions: 4 mg/kg via tail vein
Protocol: as §1
In order to determine an optimal time for in vivo photothermal treatment with the IR-780-F, tissue permeability and distribution of the IR-780-F in tumor-bearing mice are examined by means of a whole animal near infrared (NIR) imaging system. An injection of the IR-780-F (containing 12.4% dimethyl sulfoxide) is prepared with PBS buffer solution. When the tumors in the tumor-bearing mice grow to a certain volume, 4 milligrams per kilogram of the tumor-bearing mice (mg/kg) IR-780-F is injected into the tumor-bearing mice via tail vein. The anesthetized nude mice are placed into a in vivo imaging apparatus (also referred to as living imaging apparatus) and subjected to fluorescence imaging at 0 h, 2 h, 4 h, 8 h, 12 h, 24 h, 48 h, 72 h, 96 h and 120 h. […] The organs are placed in the living imaging apparatus to observe fluorescence distribution of each organ.

For CCCN1/C(=C/C=C2\CCCC(/C=C/C3=[N+](CCC)c4ccccc4C3(C)C)=C2Cl)C(C)(C)c2ccccc21.[I-] [IR-780, reference compound], the “cell viability of the 4T1 cells” value [1] was “decreases with the increase of the concentrations” and the “highest temperature of the solution” value [2] was 69.3 °C.

With CC1(C)C(/C=C/C2=C(Cl)C(=C/C=C3/N(CCC(F)(F)F)c4ccccc4C3(C)C)/CCC2)=[N+](CCC(F)(F)F)c2ccccc21 [IR-780-F] the “cell viability of the 4T1 cells” value [1] was “decreases with the increase of the concentrations”, the “photothermal conversion effect compared with IR-780” value [2] was “better photothermal conversion effect than that of the IR-780” and the “highest temperature of the solution” value [2] was 69.3 °C. For the same compound, the “surface temperature of the tumor locations” value [3] was 52.9±0.2 °C, the tumor size ([4]; IR-780-F group: 80 μg intratumoral without laser radiation, 12th day) was 559±49 mm^3 and the tumor growth ([4]; IR-780-F without laser, compared with laser alone and control PBS group, P>0.05) was “does not show a significant inhibition”. The mean tumor size ([4]; IR-780-F+laser group: 80 μg intratumoral, 808 nm, 2.0 W/cm^2, 4 min, 12th day) was 94±11 mm^3, the “tumor volumes of excised tumors” value ([4]; IR-780-F+laser radiation group, sacrificed at the 12th day) was “significantly smaller than those in the other three groups” and the tumor growth ([4]; IR-780-F+laser radiation, P<0.01) was “significantly inhibited”. The “Stoke shift value (difference between maximum emission wavelength and maximum absorption wavelength)” value [5] was 38 nm, the maximum emission wavelength ([5]; in FBS) was 820 nm and the maximum emission wavelength ([5]; in HAS) was 818 nm. The maximum absorption wavelength ([5]; in HEPES, 10.0 μM, 10% dimethyl sulfoxide) was 773 nm, the maximum emission wavelength ([5]; in HEPES) was 804 nm and the maximum emission wavelength ([5]; in MeCN) was 816 nm. For the same compound, the maximum emission wavelength ([5]; in MeOH) was 814 nm, the “fluorescence distribution in dissected organs and tumors” value ([6]; dissected five days later) was “mainly concentrated at the tumor location and there is weak fluorescence in the lungs” and the “distribution of near-infrared fluorescence in vivo” value ([6]; imaging 0-120 h) was “significant tumor targeting accumulation”.
